Legend:
Format in all cases: biochemical
[1] = biological target: p110δ/p85α (Homo sapiens, UniProt O00329); experiment: Transcreener KINASE Assay, kinase inhibition of p110δ/p85α; conditions: for PI3Kδ IH % @ 1 uM: 1 uM test compound; for IC50: read-out: PI3Kδ IC50
In short: (§1)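 Recombinant human PI3K heterodimers (p110/p85α) incubated with compound (2% DMSO final) in HEPES/NaCl/EGTA/CHAPS/MgCl2/DTT buffer with 30 uM PIP2 and 10 uM ATP (as added) for 80 min at room temperature.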

[2] = biological target: p110γ (Homo sapiens, UniProt P48736); experiment: Transcreener KINASE Assay, kinase inhibition of p110γ; conditions: for PI3Kγ IH % @ 1 uM: 1 uM test compound; for IC50: read-out: PI3Kγ IC50
In short: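 ADP-detecting fluorescence polarization immunoassay run as two-step endpoint: kinase reaction for 80 min, detection for 60 min, both at room temperature. Enzymes are recombinant p110 isoforms with p85α, except p110γ. IC50s derived from fitted inhibition curves.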

[3] = biological target: p110β/p85α (Homo sapiens, UniProt P42338); experiment: Transcreener KINASE Assay, kinase inhibition of p110β/p85α; conditions: for PI3Kβ IH % @ 1 uM: 1 uM test compound; for IC50: read-out: PI3Kβ IC50
In short: as §1

p110γ, sequence (P48736 whole entry, canonical isoform): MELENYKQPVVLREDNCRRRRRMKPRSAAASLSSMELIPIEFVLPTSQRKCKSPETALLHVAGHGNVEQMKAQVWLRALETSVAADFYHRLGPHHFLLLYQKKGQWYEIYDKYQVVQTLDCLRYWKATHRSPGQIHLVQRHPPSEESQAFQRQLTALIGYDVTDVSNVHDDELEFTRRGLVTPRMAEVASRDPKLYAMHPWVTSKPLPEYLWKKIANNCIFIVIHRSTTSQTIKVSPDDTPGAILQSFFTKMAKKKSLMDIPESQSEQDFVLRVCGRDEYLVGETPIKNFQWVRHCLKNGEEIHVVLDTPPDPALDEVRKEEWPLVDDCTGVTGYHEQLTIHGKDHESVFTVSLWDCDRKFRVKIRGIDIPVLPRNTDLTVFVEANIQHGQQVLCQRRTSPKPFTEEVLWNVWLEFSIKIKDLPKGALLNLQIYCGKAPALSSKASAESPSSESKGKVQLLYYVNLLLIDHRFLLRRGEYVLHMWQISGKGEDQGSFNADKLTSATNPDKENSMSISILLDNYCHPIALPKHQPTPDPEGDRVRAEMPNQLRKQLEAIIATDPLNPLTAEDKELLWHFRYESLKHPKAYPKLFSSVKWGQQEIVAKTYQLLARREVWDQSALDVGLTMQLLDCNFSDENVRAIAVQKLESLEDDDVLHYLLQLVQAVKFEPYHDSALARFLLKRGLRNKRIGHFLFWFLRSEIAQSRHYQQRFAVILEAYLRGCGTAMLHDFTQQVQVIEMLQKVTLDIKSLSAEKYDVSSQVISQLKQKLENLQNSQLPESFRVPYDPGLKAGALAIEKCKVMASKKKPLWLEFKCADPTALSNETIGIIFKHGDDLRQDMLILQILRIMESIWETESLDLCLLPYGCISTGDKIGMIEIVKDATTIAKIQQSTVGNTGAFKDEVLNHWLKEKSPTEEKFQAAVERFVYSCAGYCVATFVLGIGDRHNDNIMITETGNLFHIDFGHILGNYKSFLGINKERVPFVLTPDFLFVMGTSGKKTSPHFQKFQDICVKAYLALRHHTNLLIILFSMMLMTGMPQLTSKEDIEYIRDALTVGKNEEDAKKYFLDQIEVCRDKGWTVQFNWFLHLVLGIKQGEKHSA
p110β/p85α, sequence (P42338 whole entry): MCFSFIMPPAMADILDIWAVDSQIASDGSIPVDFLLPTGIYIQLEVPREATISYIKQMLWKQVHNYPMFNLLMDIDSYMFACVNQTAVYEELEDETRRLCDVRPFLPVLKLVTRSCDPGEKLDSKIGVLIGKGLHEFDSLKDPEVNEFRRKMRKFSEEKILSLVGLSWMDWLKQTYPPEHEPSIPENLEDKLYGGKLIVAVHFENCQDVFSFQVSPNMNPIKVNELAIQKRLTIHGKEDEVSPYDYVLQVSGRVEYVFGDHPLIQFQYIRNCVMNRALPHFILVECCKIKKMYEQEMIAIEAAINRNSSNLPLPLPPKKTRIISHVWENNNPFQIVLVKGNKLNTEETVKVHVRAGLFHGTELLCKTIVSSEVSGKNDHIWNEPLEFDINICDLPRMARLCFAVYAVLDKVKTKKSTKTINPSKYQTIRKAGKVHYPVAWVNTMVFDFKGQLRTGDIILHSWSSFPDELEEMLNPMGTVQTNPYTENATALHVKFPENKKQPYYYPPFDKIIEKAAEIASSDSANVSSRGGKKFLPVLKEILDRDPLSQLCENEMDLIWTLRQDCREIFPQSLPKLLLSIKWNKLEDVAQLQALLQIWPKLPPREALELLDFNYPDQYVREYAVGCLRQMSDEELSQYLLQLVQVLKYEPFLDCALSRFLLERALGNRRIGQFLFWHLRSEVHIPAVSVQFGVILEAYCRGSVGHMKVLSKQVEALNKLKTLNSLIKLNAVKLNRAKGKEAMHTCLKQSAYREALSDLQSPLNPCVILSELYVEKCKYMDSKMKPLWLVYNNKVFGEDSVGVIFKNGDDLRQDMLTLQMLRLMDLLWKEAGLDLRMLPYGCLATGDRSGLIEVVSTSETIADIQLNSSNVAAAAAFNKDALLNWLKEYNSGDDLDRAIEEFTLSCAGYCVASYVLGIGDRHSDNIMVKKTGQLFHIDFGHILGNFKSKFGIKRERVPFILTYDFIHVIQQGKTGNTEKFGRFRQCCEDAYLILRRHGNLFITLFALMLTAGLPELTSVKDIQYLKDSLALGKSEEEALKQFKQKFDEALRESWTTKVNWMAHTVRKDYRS
p110β/p85α, sequence (P27986 2-724 partner): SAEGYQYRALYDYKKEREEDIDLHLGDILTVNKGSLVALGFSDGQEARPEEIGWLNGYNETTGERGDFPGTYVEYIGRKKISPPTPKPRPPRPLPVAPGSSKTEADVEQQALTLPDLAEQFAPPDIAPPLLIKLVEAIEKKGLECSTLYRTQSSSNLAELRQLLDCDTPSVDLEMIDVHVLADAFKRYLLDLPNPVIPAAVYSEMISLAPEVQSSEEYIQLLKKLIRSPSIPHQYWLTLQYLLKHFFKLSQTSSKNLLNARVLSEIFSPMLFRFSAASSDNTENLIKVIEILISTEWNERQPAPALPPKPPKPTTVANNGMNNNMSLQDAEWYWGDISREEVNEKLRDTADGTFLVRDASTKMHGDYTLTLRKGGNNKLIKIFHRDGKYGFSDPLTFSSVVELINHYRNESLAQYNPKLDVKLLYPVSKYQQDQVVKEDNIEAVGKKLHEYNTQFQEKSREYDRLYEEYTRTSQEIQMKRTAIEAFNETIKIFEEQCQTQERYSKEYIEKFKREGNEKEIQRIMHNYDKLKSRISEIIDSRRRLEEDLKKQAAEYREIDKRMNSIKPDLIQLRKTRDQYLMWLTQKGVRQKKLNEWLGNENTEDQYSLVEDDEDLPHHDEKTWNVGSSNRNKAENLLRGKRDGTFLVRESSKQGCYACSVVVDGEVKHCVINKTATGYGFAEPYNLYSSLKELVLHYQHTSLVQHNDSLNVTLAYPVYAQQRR
p110δ/p85α, sequence (O00329 whole entry): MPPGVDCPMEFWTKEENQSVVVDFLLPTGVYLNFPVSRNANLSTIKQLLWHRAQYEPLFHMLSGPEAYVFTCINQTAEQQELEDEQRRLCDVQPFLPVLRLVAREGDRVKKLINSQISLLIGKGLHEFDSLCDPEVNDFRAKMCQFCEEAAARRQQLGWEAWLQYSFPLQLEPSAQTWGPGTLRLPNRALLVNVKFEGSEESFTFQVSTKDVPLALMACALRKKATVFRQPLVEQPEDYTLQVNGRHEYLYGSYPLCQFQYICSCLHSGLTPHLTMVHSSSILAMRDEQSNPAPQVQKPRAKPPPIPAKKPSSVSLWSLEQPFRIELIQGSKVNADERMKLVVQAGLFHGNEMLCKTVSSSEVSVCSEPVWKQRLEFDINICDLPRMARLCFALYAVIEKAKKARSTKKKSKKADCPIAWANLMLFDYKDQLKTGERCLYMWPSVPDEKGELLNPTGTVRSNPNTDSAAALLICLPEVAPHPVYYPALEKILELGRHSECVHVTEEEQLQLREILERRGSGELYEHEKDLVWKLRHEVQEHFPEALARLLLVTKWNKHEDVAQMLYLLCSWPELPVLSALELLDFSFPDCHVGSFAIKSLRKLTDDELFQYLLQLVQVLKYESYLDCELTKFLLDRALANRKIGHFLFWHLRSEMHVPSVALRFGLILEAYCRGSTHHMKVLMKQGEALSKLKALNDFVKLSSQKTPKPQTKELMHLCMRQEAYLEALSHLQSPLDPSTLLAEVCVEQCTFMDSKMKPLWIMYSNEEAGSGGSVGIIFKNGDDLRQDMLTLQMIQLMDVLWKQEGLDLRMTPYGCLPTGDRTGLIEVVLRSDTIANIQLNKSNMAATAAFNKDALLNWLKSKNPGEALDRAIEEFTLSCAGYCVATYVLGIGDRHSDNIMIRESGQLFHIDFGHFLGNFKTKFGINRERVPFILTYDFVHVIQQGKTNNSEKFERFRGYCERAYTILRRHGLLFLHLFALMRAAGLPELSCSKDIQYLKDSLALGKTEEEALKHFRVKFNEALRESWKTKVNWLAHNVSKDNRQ
p110δ/p85α, sequence (P27986 whole entry partner): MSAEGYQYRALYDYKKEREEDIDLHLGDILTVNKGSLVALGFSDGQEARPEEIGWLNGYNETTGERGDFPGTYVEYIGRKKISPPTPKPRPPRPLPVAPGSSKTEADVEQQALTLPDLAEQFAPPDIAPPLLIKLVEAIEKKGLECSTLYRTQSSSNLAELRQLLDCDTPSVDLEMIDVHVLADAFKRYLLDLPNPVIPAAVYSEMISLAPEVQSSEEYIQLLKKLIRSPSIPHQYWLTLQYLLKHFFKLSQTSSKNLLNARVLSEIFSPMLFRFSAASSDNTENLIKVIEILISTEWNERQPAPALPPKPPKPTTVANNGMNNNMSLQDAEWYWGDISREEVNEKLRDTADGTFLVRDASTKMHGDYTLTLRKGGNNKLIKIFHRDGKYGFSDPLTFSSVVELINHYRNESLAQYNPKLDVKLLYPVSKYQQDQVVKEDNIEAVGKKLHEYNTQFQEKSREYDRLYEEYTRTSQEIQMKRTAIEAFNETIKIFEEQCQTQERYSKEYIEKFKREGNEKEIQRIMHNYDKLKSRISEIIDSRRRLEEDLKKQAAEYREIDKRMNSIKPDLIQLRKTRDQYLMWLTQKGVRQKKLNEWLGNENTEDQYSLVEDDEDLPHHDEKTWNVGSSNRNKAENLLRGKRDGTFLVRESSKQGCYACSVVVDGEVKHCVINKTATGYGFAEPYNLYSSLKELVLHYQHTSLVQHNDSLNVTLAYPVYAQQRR

| Structure (SMILES) | PI3Kδ IH % @ 1 uM [1] [%] | IC50 [1] [µM] | PI3Kγ IH % @ 1 uM [2] [%] | IC50 [2] [µM] | PI3Kβ IH % @ 1 uM [3] [%] | IC50 [3] [µM] |
| --- | --- | --- | --- | --- | --- | --- |
| N#Cc1cnc(N)nc1N1CCC[C@H]1c1nn2ccc(Cl)c2c(=O)n1-c1ccc(F)cc1 [Compound 231] | 98.1 | 0.009 | 96.8 | 0.004 | 80.5 | 0.197 |
| C[C@H]1CCN(c2nc(N)ncc2C#N)C1c1nn2ccc(Cl)c2c(=O)n1-c1ccccc1 (stereo partly drawn) [Compound 236] | >100 | – | 94.9 | – | 79.8 | – |
| Cc1nc(N2CCC[C@H]2c2nn3ccc(F)c3c(=O)n2-c2ccccc2)c2nc[nH]c2n1 [Compound 239] | 98.7 | 0.018 | >100 | 0.075 | 59.8 | – |
| Nc1ncc([N+](=O)[O-])c(N2CCC[C@H]2c2nn3ccc(Cl)c3c(=O)n2-c2ccccc2)n1 [Compound 240] | 98.1 | 0.034 | >100 | 0.036 | 45.0 | – |
| Nc1nc2c(c(N3CC[C@H]3c3nn4ccc(Cl)c4c(=O)n3-c3ccccc3)n1)C(=O)CCN2 [Compound 241] | 95.3 | 0.032 | 98.7 | 0.014 | 31.9 | – |
| Nc1nc2c(c(N3CCC[C@H]3c3nn4ccc(Br)c4c(=O)n3-c3ccccc3)n1)CCC2 [Compound 245] | 78.0 | 0.341 | 77.5 | 0.337 | 38.4 | – |
| Nc1nc2c(c(N3CCC[C@H]3c3nn4ccc(Cl)c4c(=O)n3-c3ccccc3)n1)CCC2 [Compound 246] | 84.6 | 0.562 | 80.8 | 0.696 | 2.5 | – |
| Nc1nc2c(c(N3CC[C@H]3c3nn4ccc(F)c4c(=O)n3-c3ccccc3)n1)C(=O)CCN2 [Compound 248] | 96.2 | 0.009 | 98.0 | 0.009 | −10.7 | – |
| Nc1nc2c(c(N3CCC[C@H]3c3nn4ccc(F)c4c(=O)n3-c3ccccc3)n1)C(=O)CCN2 [Compound 249] | 99.3 | 0.008 | 98.0 | 0.029 | 24.8 | – |
| Nc1nc2c(c(N3C[C@@H](F)C[C@H]3c3nn4ccc(F)c4c(=O)n3-c3ccccc3)n1)C(=O)CCN2 [Compound 250] | 99.1 | 0.022 | 95.8 | 0.045 | 33.4 | – |
| O=c1c2c(Cl)ccn2nc([C@@H]2CCCN2c2ncnc3[nH]cnc23)n1CCN1CCOCC1 [Compound 253] | 92.8 | 0.052 | 69.0 | 0.553 | 45.1 | – |
| N#Cc1c[nH]c2ncnc(N3CCC[C@H]3c3nn4ccc(Cl)c4c(=O)n3CCN3CCOCC3)c12 [Compound 255] | >100 | 0.004 | >100 | 0.073 | 72.6 | 0.304 |
| N#Cc1c[nH]c2ncnc(N3CCC[C@H]3c3nn4ccc(Cl)c4c(=O)n3CC3CC3)c12 [Compound 257] | >100 | 0.002 | >100 | 0.018 | 82.4 | 0.08 |
| N#Cc1c[nH]c2ncnc(N3CCC[C@H]3c3nn4ccc(Cl)c4c(=O)n3CC3CCCCC3)c12 [Compound 258] | 94.7 | 0.076 | 73.0 | 0.467 | 10.4 | – |
| CC(C)Cn1c([C@@H]2CCN2c2ncnc3[nH]cc(C#N)c23)nn2ccc(Cl)c2c1=O [Compound 259] | 98.8 | 0.027 | 89.5 | 0.17 | 41.5 | – |
| O=c1c2c(Cl)ccn2nc([C@@H]2C[C@H](OCCO)CN2c2ncnc3[nH]cnc23)n1-c1ccccc1 [Compound 265] | >100 | 0.001 | >100 | 0.011 | 68.6 | 0.3 |
| CC(Nc1ncnc2[nH]cc(F)c12)c1cn2ccc(Cl)c2c(=O)n1-c1ccccc1 (stereo not drawn) [Compound 270] | >100 | 0.012 | 89.7 | 0.022 | 87.4 | 0.174 |

Second part, the compound after the results:

| PI3Kδ IH % @ 1 uM [1] [%] | IC50 [1] [µM] | PI3Kγ IH % @ 1 uM [2] [%] | IC50 [2] [µM] | PI3Kβ IH % @ 1 uM [3] [%] | IC50 [3] [µM] | Structure (SMILES) |
| --- | --- | --- | --- | --- | --- | --- |
| >100 | 0.006 | >100 | 0.014 | 63.4 | – | N#Cc1cnc(N)nc1N1CCC[C@H]1c1nn2ccc(Cl)c2c(=O)n1-c1cccc(F)c1 [Compound 232] |
| >100 | – | >100 | – | >100 | – | C[C@H]1CCN(c2ncnc3[nH]cc(C#N)c23)C1c1nn2ccc(Cl)c2c(=O)n1-c1ccccc1 (stereo partly drawn) [Compound 233] |
| >100 | – | >100 | – | 83.4 | – | C[C@H]1CCN(c2ncnc3[nH]cnc23)C1c1nn2ccc(Cl)c2c(=O)n1-c1ccccc1 (stereo partly drawn) [Compound 234] |
| >100 | 0.014 | 86.3 | 0.035 | 37.6 | – | C[C@H]1CN(c2ncnc3[nH]cnc23)C1c1nn2ccc(Cl)c2c(=O)n1-c1ccccc1 (stereo partly drawn) [Compound 237] |
| >100 | 0.014 | >100 | 0.018 | 33.8 | – | C#Cc1cnc(N)nc1N1CCC[C@H]1c1nn2ccc(Cl)c2c(=O)n1-c1ccccc1 [Compound 238] |
| 96.8 | 0.01 | 98.9 | 0.019 | 46.5 | – | Nc1nc2c(c(N3CCC[C@H]3c3nn4ccc(Cl)c4c(=O)n3-c3ccccc3)n1)C(=O)CCN2 [Compound 242] |
| 99.8 | 0.004 | 92.7 | 0.03 | 58.4 | – | C[C@H]1CN(c2ncnc3[nH]cc(C#N)c23)[C@@H]1c1nn2ccc(F)c2c(=O)n1-c1ccccc1 [Compound 244] |
| 53.0 | – | 73.0 | – | 4.8 | – | Nc1nc2c(c(N3CC[C@H]3c3nn4ccc(Cl)c4c(=O)n3-c3ccccc3)n1)CCC2 [Compound 247] |
| 88.3 | 0.102 | 56.3 | – | 50.4 | – | CN(C)CCn1c([C@@H]2CCCN2c2ncnc3[nH]cnc23)nn2ccc(Cl)c2c1=O [Compound 251] |
| 97.0 | 0.007 | 68.9 | – | 56.6 | – | CN(C)CCn1c([C@@H]2CCCN2c2ncnc3[nH]cc(C#N)c23)nn2ccc(Cl)c2c1=O [Compound 252] |
| 98.0 | 0.04 | 90.9 | 0.163 | 39.6 | – | CC(C)Cn1c([C@@H]2CCN2c2nc(N)ncc2C#N)nn2ccc(Cl)c2c1=O [Compound 260] |
| >100 | 0.001 | >100 | 0.003 | >100 | 0.031 | N#Cc1c[nH]c2ncnc(N3C[C@@H](O)C[C@H]3c3nn4ccc(Cl)c4c(=O)n3-c3cccc(F)c3)c12 [Compound 261] |
| 97.1 | – | 93.4 | 0.011 | 88.8 | 0.018 | O=c1c2c(Cl)ccn2nc([C@@H]2C[C@H](O)CN2c2ncnc3[nH]cnc23)n1-c1ccccc1 [Compound 262] |
| >100 | 0.004 | >100 | 0.017 | 74.5 | 0.118 | CO[C@H]1C[C@@H](c2nn3ccc(Cl)c3c(=O)n2-c2ccccc2)N(c2ncnc3[nH]cnc23)C1 [Compound 263] |
| >100 | 0.001 | >100 | 0.003 | 92.8 | 0.069 | COCCO[C@H]1C[C@@H](c2nn3ccc(Cl)c3c(=O)n2-c2ccccc2)N(c2ncnc3[nH]cc(C#N)c23)C1 [Compound 264, 4-((2S,4S)-2-(5-chloro-4-oxo-3-phenyl-3,4-dihydropyrrolo[2,1-f][1,2,4]triazin-2-yl)-4-(2-methoxyethoxyl)pyrrolidin-1-yl)-7H-pyrrolo[2,3-d]pyrimidine-5-carbonitrile] |
| >100 | 0.006 | >100 | 0.021 | 49.9 | – | COCCO[C@H]1C[C@@H](c2nn3ccc(Cl)c3c(=O)n2-c2ccccc2)N(c2ncnc3[nH]cnc23)C1 [Compound 266] |
| 98.9 | 0.003 | >100 | 0.013 | 73.2 | 0.206 | C[S+]([O-])c1c[nH]c2ncnc(N3C[C@@H](F)C[C@H]3c3nn4ccc(Cl)c4c(=O)n3-c3ccccc3)c12 (stereo partly drawn) [Compound 267] |
| 94.7 | 0.147 | >100 | 0.093 | 38.1 | – | CC(Nc1ncnc2[nH]cc(S(C)(=O)=O)c12)c1cn2ccc(Cl)c2c(=O)n1-c1ccccc1 (stereo not drawn) [Compound 269] |

— patent publication US20150307520A1, “NOVEL HETEROARYL AND HETEROCYCLE COMPOUNDS, COMPOSITIONS AND METHODS THEREOF” (HUTCHISON MEDIPHARMA LIMITED, priority 2012, published 2015)
